ChEMBL document CHEMBL3046083, “Synthesis, characterization and antimicrobial evaluation of novel derivatives of isoniazid” (2012)
In brackets after ≈: the same amount, converted by molar mass.

What was measured:
Type in all cases: functional
[1] = test system: Bacillus subtilis; test: Antimicrobial activity against Bacillus subtilis ATCC […] after 24 hr by broth dilution method
[2] = test system: Escherichia coli; test: Antimicrobial activity against Escherichia coli ATCC 25922 after 24 hr by broth dilution method; settings: ATCC 25922, 24 h
[3] = test system: Bacillus subtilis; test: Antimicrobial activity against Bacillus subtilis ATCC […] at 100 ug/ml after 24 to 48 hr by agar diffusion method; settings: read-out: DIZ
[4] = test system: Nakaseomyces glabratus; test: Antimicrobial activity against Candida glabrata ATCC 10233 by broth dilution method
[5] = test system: Escherichia coli; test: Antimicrobial activity against Escherichia coli ATCC 25922 at 100 ug/ml after 24 to 48 hr by agar diffusion method; settings: read-out: DIZ
[6] = test system: Staphylococcus aureus; test: Antimicrobial activity against Staphylococcus aureus ATCC 29213 at 100 ug/ml after 24 to 48 hr by agar diffusion method; settings: read-out: DIZ
[7] = test system: Pseudomonas aeruginosa; test: Antimicrobial activity against Pseudomonas aeruginosa ATCC […] at 100 ug/ml after 24 to 48 hr by agar diffusion method; settings: read-out: DIZ
[8] = test system: Candida albicans; test: Antimicrobial activity against Candida albicans ATCC 10231 by broth dilution method
[9] = test system: Nakaseomyces glabratus; test: Antimicrobial activity against Candida glabrata ATCC 10233 at 100 ug/ml after 24 to 48 hr by agar diffusion method; settings: read-out: DIZ
[10] = test system: Pseudomonas aeruginosa; test: Antimicrobial activity against Pseudomonas aeruginosa ATCC […] after 24 hr by broth dilution method
[11] = test system: Candida albicans; test: Antimicrobial activity against Candida albicans ATCC 10231 at 100 ug/ml after 24 to 48 hr by agar diffusion method; settings: read-out: DIZ
[12] = test system: Staphylococcus aureus; test: Antimicrobial activity against Staphylococcus aureus ATCC 29213 after 24 hr by broth dilution method; settings: ATCC 29213, 24 h

| Molecule | MIC [1] | MIC50 [1] | MIC [2] | MIC50 [2] | zone of inhibition at 100 µg/mL [3] | MFC [4] | MIC [4] | MIC50 [4] | zone of inhibition at 100 µg/mL [5] | zone of inhibition at 100 µg/mL [6] | zone of inhibition at 100 µg/mL [7] | MFC [8] | MIC [8] | MIC50 [8] | zone of inhibition at 100 µg/mL [9] | MIC [10] | MIC50 [10] | zone of inhibition at 100 µg/mL [11] | MIC [12] | MIC50 [12] |
| --- | --- | --- | --- | --- | --- | --- | --- | --- | --- | --- | --- | --- | --- | --- | --- | --- | --- | --- | --- | --- |
| CCOc1c(/C=N\NC(=O)c2ccncc2)cccc1CN1CCCCC1 | 25 µg/mL (≈ 68.2 µM) | 12.8 µg/mL (≈ 34.9 µM) | 12.5 µg/mL (≈ 34.1 µM) | 6.4 µg/mL (≈ 17.5 µM) | 23 mm | 100 µg/mL (≈ 273 µM) | 12.5 µg/mL (≈ 34.1 µM) | 12.8 µg/mL (≈ 34.9 µM) | 25 mm | 25 mm | 20 mm | 100 µg/mL (≈ 273 µM) | 12.5 µg/mL (≈ 34.1 µM) | 12.8 µg/mL (≈ 34.9 µM) | 16 mm | 12.5 µg/mL (≈ 34.1 µM) | 6.4 µg/mL (≈ 17.5 µM) | 16 mm | 12.5 µg/mL (≈ 34.1 µM) | 6.4 µg/mL (≈ 17.5 µM) |
| CCOc1c(/C=N\NC(=O)c2ccncc2)cccc1CN1CCN(C)CC1 | 12.5 µg/mL (≈ 32.8 µM) | 6.4 µg/mL (≈ 16.8 µM) | 6.25 µg/mL (≈ 16.4 µM) | 3.2 µg/mL (≈ 8.39 µM) | 26 mm | 50 µg/mL (≈ 131 µM) | 12.5 µg/mL (≈ 32.8 µM) | 12.8 µg/mL (≈ 33.6 µM) | 32 mm | 33 mm | 22 mm | 25 µg/mL (≈ 65.5 µM) | 12.5 µg/mL (≈ 32.8 µM) | 6.4 µg/mL (≈ 16.8 µM) | 20 mm | 12.5 µg/mL (≈ 32.8 µM) | 6.4 µg/mL (≈ 16.8 µM) | 22 mm | 6.25 µg/mL (≈ 16.4 µM) | 3.2 µg/mL (≈ 8.39 µM) |
| CCOc1c(/C=N\NC(=O)c2ccncc2)cccc1CN1CCCC1 | 25 µg/mL (≈ 70.9 µM) | 12.8 µg/mL (≈ 36.3 µM) | 6.25 µg/mL (≈ 17.7 µM) | 3.2 µg/mL (≈ 9.08 µM) | 22 mm | 100 µg/mL (≈ 284 µM) | 12.5 µg/mL (≈ 35.5 µM) | 12.8 µg/mL (≈ 36.3 µM) | 27 mm | 26 mm | 20 mm | 25 µg/mL (≈ 70.9 µM) | 12.5 µg/mL (≈ 35.5 µM) | 6.4 µg/mL (≈ 18.2 µM) | 19 mm | 12.5 µg/mL (≈ 35.5 µM) | 6.4 µg/mL (≈ 18.2 µM) | 18 mm | 12.5 µg/mL (≈ 35.5 µM) | 6.4 µg/mL (≈ 18.2 µM) |
| CCOc1c(/C=N\NC(=O)c2ccncc2)cccc1CN1CCNCC1 | 12.5 µg/mL (≈ 34 µM) | 6.4 µg/mL (≈ 17.4 µM) | 6.25 µg/mL (≈ 17 µM) | 3.2 µg/mL (≈ 8.71 µM) | 27 mm | 50 µg/mL (≈ 136 µM) | 12.5 µg/mL (≈ 34 µM) | 12.8 µg/mL (≈ 34.8 µM) | 33 mm | 34 mm | 23 mm | 25 µg/mL (≈ 68 µM) | 12.5 µg/mL (≈ 34 µM) | 6.4 µg/mL (≈ 17.4 µM) | 23 mm | 12.5 µg/mL (≈ 34 µM) | 6.4 µg/mL (≈ 17.4 µM) | 24 mm | 3.12 µg/mL (≈ 8.49 µM) | 3.2 µg/mL (≈ 8.71 µM) |
| CCOc1c(/C=N\NC(=O)c2ccncc2)cccc1CN(C)C | 50 µg/mL (≈ 153 µM) | 12.8 µg/mL (≈ 39.2 µM) | 25 µg/mL (≈ 76.6 µM) | 12.8 µg/mL (≈ 39.2 µM) | 17 mm | 100 µg/mL (≈ 306 µM) | 25 µg/mL (≈ 76.6 µM) | 25.6 µg/mL (≈ 78.4 µM) | 20 mm | 21 mm | 15 mm | 100 µg/mL (≈ 306 µM) | 25 µg/mL (≈ 76.6 µM) | 12.8 µg/mL (≈ 39.2 µM) | 14 mm | 25 µg/mL (≈ 76.6 µM) | 12.8 µg/mL (≈ 39.2 µM) | 13 mm | 25 µg/mL (≈ 76.6 µM) | 12.8 µg/mL (≈ 39.2 µM) |
| CCOc1c(/C=N\NC(=O)c2ccncc2)cccc1CN1CCOCC1 | 12.5 µg/mL (≈ 33.9 µM) | 6.4 µg/mL (≈ 17.4 µM) | 6.25 µg/mL (≈ 17 µM) | 3.2 µg/mL (≈ 8.69 µM) | 27 mm | 50 µg/mL (≈ 136 µM) | 12.5 µg/mL (≈ 33.9 µM) | 12.8 µg/mL (≈ 34.7 µM) | 31 mm | 32 mm | 22 mm | 25 µg/mL (≈ 67.9 µM) | 12.5 µg/mL (≈ 33.9 µM) | 6.4 µg/mL (≈ 17.4 µM) | 21 mm | 12.5 µg/mL (≈ 33.9 µM) | 6.4 µg/mL (≈ 17.4 µM) | 21 mm | 6.25 µg/mL (≈ 17 µM) | 3.2 µg/mL (≈ 8.69 µM) |
| CCCN(CCC)Cc1cccc(/C=N\NC(=O)c2ccncc2)c1OCC | 25 µg/mL (≈ 65.4 µM) | 12.8 µg/mL (≈ 33.5 µM) | 12.5 µg/mL (≈ 32.7 µM) | 6.4 µg/mL (≈ 16.7 µM) | 21 mm | 100 µg/mL (≈ 261 µM) | 12.5 µg/mL (≈ 32.7 µM) | 12.8 µg/mL (≈ 33.5 µM) | 22 mm | 22 mm | 18 mm | 50 µg/mL (≈ 131 µM) | 25 µg/mL (≈ 65.4 µM) | 12.8 µg/mL (≈ 33.5 µM) | 15 mm | 12.5 µg/mL (≈ 32.7 µM) | 6.4 µg/mL (≈ 16.7 µM) | 15 mm | 25 µg/mL (≈ 65.4 µM) | 6.4 µg/mL (≈ 16.7 µM) |
| CCCCN(CCCC)Cc1cccc(/C=N\NC(=O)c2ccncc2)c1OCC | 25 µg/mL (≈ 60.9 µM) | 12.8 µg/mL (≈ 31.2 µM) | 12.5 µg/mL (≈ 30.4 µM) | 6.4 µg/mL (≈ 15.6 µM) | 21 mm | 100 µg/mL (≈ 244 µM) | 12.5 µg/mL (≈ 30.4 µM) | 12.8 µg/mL (≈ 31.2 µM) | 24 mm | 23 mm | 19 mm | 100 µg/mL (≈ 244 µM) | 25 µg/mL (≈ 60.9 µM) | 12.8 µg/mL (≈ 31.2 µM) | 15 mm | 12.5 µg/mL (≈ 30.4 µM) | 6.4 µg/mL (≈ 15.6 µM) | 15 mm | 12.5 µg/mL (≈ 30.4 µM) | 6.4 µg/mL (≈ 15.6 µM) |
| CCOc1c(/C=N\NC(=O)c2ccncc2)cccc1CN(CC)CC | 25 µg/mL (≈ 70.5 µM) | 12.8 µg/mL (≈ 36.1 µM) | 25 µg/mL (≈ 70.5 µM) | 12.8 µg/mL (≈ 36.1 µM) | 19 mm | 100 µg/mL (≈ 282 µM) | 25 µg/mL (≈ 70.5 µM) | 25.6 µg/mL (≈ 72.2 µM) | 20 mm | 21 mm | 16 mm | 25 µg/mL (≈ 70.5 µM) | 25 µg/mL (≈ 70.5 µM) | 12.8 µg/mL (≈ 36.1 µM) | 14 mm | 25 µg/mL (≈ 70.5 µM) | 12.8 µg/mL (≈ 36.1 µM) | 15 mm | 25 µg/mL (≈ 70.5 µM) | 12.8 µg/mL (≈ 36.1 µM) |
| NYSTATIN |  |  |  |  |  | 25 µg/mL | 12.5 µg/mL | 6.4 µg/mL |  |  |  | 12.5 µg/mL | 6.25 µg/mL | 3.2 µg/mL |  |  |  |  |  |  |
| CCOc1ccccc1/C=N\NC(=O)c1ccncc1 | 50 µg/mL (≈ 186 µM) | 25.6 µg/mL (≈ 95.1 µM) | 50 µg/mL (≈ 186 µM) | 25.6 µg/mL (≈ 95.1 µM) | 15 mm | 100 µg/mL (≈ 371 µM) | 25 µg/mL (≈ 92.8 µM) | 25.6 µg/mL (≈ 95.1 µM) | 18 mm | 19 mm | 14 mm | 50 µg/mL (≈ 186 µM) | 50 µg/mL (≈ 186 µM) | 25.6 µg/mL (≈ 95.1 µM) | 11 mm | 25 µg/mL (≈ 92.8 µM) | 12.8 µg/mL (≈ 47.5 µM) | 13 mm | 25 µg/mL (≈ 92.8 µM) | 12.8 µg/mL (≈ 47.5 µM) |
